# Patent publication US20210363254A1, “PHARMACEUTICAL COMBINATIONS” (Novartis AG, priority 2018, published 2021)
# Like-named read-outs stand apart in the source and are kept apart here.
compound,measurement,setting,value
"COc1ncc(-c2nc3c(n2C(C)C)[C@H](c2ccc(Cl)cc2)N(c2cc(Cl)cn(C)c2=O)C3=O)c(OC)n1 [HDM201, (S)-5-(5-Chloro-1-methyl-2-oxo-1,2-dihydro-pyridin-3-yl)-6-(4-chloro-phenyl)-2-(2,4-dimethoxy-pyrimidin-5-yl)-1-isopropyl-5,6-dihydro-1H-pyrrolo[3,4-d]imidazol-4-one]","Abdominal Pain, All Grades","1B 120 mg, N=9",1 (11.1) n (%)
same,"Abdominal Pain, Grade 3/4","1B 120 mg, N=9",0 n (%)
same,"Alanine Aminotransferase Increased, All Grades","1B 120 mg, N=9",0 n (%)
same,"Alanine Aminotransferase Increased, Grade 3/4","1B 120 mg, N=9",0 n (%)
same,"Alopecia, All Grades","1B 120 mg, N=9",1 (11.1) n (%)
same,"Alopecia, Grade 3/4","1B 120 mg, N=9",0 n (%)
same,"Amylase Increased, All Grades","1B 120 mg, N=9",0 n (%)
same,"Amylase Increased, Grade 3/4","1B 120 mg, N=9",0 n (%)
same,"Anaemia, All Grades","1B 120 mg, N=9",2 (22.2) n (%)
same,"Anaemia, Grade 3/4","1B 120 mg, N=9",0 n (%)
same,"Asthenia, All Grades","1B 120 mg, N=9",1 (11.1) n (%)
same,"Asthenia, Grade 3/4","1B 120 mg, N=9",0 n (%)
same,"Blood Bilirubin Increased, All Grades","1B 120 mg, N=9",0 n (%)
same,"Blood Bilirubin Increased, Grade 3/4","1B 120 mg, N=9",0 n (%)
same,"Blood Creatine Phosphokinase Increased, All Grades","1B 120 mg, N=9",2 (22.2) n (%)
same,"Blood Creatine Phosphokinase Increased, Grade 3/4","1B 120 mg, N=9",1 (11.1) n (%)
same,"Blood Creatinine Increased, All Grades","1B 120 mg, N=9",1 (11.1) n (%)
same,"Blood Creatinine Increased, Grade 3/4","1B 120 mg, N=9",0 n (%)
same,"Decreased Appetite, All Grades","1B 120 mg, N=9",1 (11.1) n (%)
same,"Decreased Appetite, Grade 3/4","1B 120 mg, N=9",0 n (%)
same,"Dehydration, All Grades","1B 120 mg, N=9",1 (11.1) n (%)
same,"Dehydration, Grade 3/4","1B 120 mg, N=9",0 n (%)
same,"Diarrhoea, All Grades","1B 120 mg, N=9",3 (33.3) n (%)
same,"Diarrhoea, Grade 3/4","1B 120 mg, N=9",0 n (%)
same,"Dry Skin, All Grades","1B 120 mg, N=9",1 (11.1) n (%)
same,"Dry Skin, Grade 3/4","1B 120 mg, N=9",0 n (%)
same,"Dysgeusia, All Grades","1B 120 mg, N=9",1 (11.1) n (%)
same,"Dysgeusia, Grade 3/4","1B 120 mg, N=9",0 n (%)
same,"Eye Pain, All Grades","1B 120 mg, N=9",0 n (%)
same,"Eye Pain, Grade 3/4","1B 120 mg, N=9",0 n (%)
same,"Fatigue, All Grades","1B 120 mg, N=9",1 (11.1) n (%)
same,"Fatigue, Grade 3/4","1B 120 mg, N=9",0 n (%)
same,"Folliculitis, All Grades","1B 120 mg, N=9",0 n (%)
same,"Folliculitis, Grade 3/4","1B 120 mg, N=9",0 n (%)
same,"Gamma-Glutamyltransferase Increased, All Grades","1B 120 mg, N=9",0 n (%)
same,"Gamma-Glutamyltransferase Increased, Grade 3/4","1B 120 mg, N=9",0 n (%)
same,"Headache, All Grades","1B 120 mg, N=9",0 n (%)
same,"Headache, Grade 3/4","1B 120 mg, N=9",0 n (%)
same,"Hyperkalaemia, All Grades","1B 120 mg, N=9",1 (11.1) n (%)
same,"Hyperkalaemia, Grade 3/4","1B 120 mg, N=9",0 n (%)
same,"Hypocalcaemia, All Grades","1B 120 mg, N=9",1 (11.1) n (%)
same,"Hypocalcaemia, Grade 3/4","1B 120 mg, N=9",0 n (%)
same,"Influenza Like Illness, All Grades","1B 120 mg, N=9",0 n (%)
same,"Influenza Like Illness, Grade 3/4","1B 120 mg, N=9",0 n (%)
same,"Lethargy, All Grades","1B 120 mg, N=9",0 n (%)
same,"Lethargy, Grade 3/4","1B 120 mg, N=9",0 n (%)
same,"Leukopenia, All Grades","1B 120 mg, N=9",1 (11.1) n (%)
same,"Leukopenia, Grade 3/4","1B 120 mg, N=9",0 n (%)
same,"Lipase Increased, All Grades","1B 120 mg, N=9",1 (11.1) n (%)
same,"Lipase Increased, Grade 3/4","1B 120 mg, N=9",0 n (%)
same,"Lymphopenia, All Grades","1B 120 mg, N=9",0 n (%)
same,"Lymphopenia, Grade 3/4","1B 120 mg, N=9",0 n (%)
same,"Monocytosis, All Grades","1B 120 mg, N=9",1 (11.1) n (%)
same,"Monocytosis, Grade 3/4","1B 120 mg, N=9",0 n (%)
same,"Musculoskeletal Pain, All Grades","1B 120 mg, N=9",1 (11.1) n (%)
same,"Musculoskeletal Pain, Grade 3/4","1B 120 mg, N=9",0 n (%)
same,"Myalgia, All Grades","1B 120 mg, N=9",1 (11.1) n (%)
same,"Myalgia, Grade 3/4","1B 120 mg, N=9",0 n (%)
same,"Nausea, All Grades","1B 120 mg, N=9",7 (77.8) n (%)
same,"Nausea, Grade 3/4","1B 120 mg, N=9",1 (11.1) n (%)
same,"Neuralgia, All Grades","1B 120 mg, N=9",0 n (%)
same,"Neuralgia, Grade 3/4","1B 120 mg, N=9",0 n (%)
same,"Neutropenia, All Grades","1B 120 mg, N=9",2 (22.2) n (%)
same,"Neutropenia, Grade 3/4","1B 120 mg, N=9",2 (22.2) n (%)
same,"Neutrophil Count Decreased, All Grades","1B 120 mg, N=9",0 n (%)
same,"Neutrophil Count Decreased, Grade 3/4","1B 120 mg, N=9",0 n (%)
same,"Oedema, All Grades","1B 120 mg, N=9",0 n (%)
same,"Oedema, Grade 3/4","1B 120 mg, N=9",0 n (%)
same,"Oral Candidiasis, All Grades","1B 120 mg, N=9",0 n (%)
same,"Oral Candidiasis, Grade 3/4","1B 120 mg, N=9",0 n (%)
same,"Platelet Count Decreased, All Grades","1B 120 mg, N=9",3 (33.3) n (%)
same,"Platelet Count Decreased, Grade 3/4","1B 120 mg, N=9",0 n (%)
same,"Pruritus, All Grades","1B 120 mg, N=9",0 n (%)
same,"Pruritus, Grade 3/4","1B 120 mg, N=9",0 n (%)
same,"Thrombocytopenia, All Grades","1B 120 mg, N=9",1 (11.1) n (%)
same,"Thrombocytopenia, Grade 3/4","1B 120 mg, N=9",0 n (%)
same,"Total, All Grades","1B 120 mg, N=9",9 (100) n (%)
same,"Total, Grade 3/4","1B 120 mg, N=9",4 (44.4) n (%)
same,"Vomiting, All Grades","1B 120 mg, N=9",3 (33.3) n (%)
same,"Vomiting, Grade 3/4","1B 120 mg, N=9",0 n (%)
same,"Weight Decreased, All Grades","1B 120 mg, N=9",1 (11.1) n (%)
same,"Weight Decreased, Grade 3/4","1B 120 mg, N=9",0 n (%)
same,"White Blood Cell Count Decreased, All Grades","1B 120 mg, N=9",2 (22.2) n (%)
same,"White Blood Cell Count Decreased, Grade 3/4","1B 120 mg, N=9",0 n (%)
same,"Abdominal Pain, All Grades","1B 150 mg, N=8",2 (25.0) n (%)
same,"Abdominal Pain, Grade 3/4","1B 150 mg, N=8",0 n (%)
same,"Alanine Aminotransferase Increased, All Grades","1B 150 mg, N=8",1 (12.5) n (%)
same,"Alanine Aminotransferase Increased, Grade 3/4","1B 150 mg, N=8",0 n (%)
same,"Alopecia, All Grades","1B 150 mg, N=8",0 n (%)
same,"Alopecia, Grade 3/4","1B 150 mg, N=8",0 n (%)
same,"Amylase Increased, All Grades","1B 150 mg, N=8",0 n (%)
same,"Amylase Increased, Grade 3/4","1B 150 mg, N=8",0 n (%)
same,"Anaemia, All Grades","1B 150 mg, N=8",2 (25.0) n (%)
same,"Anaemia, Grade 3/4","1B 150 mg, N=8",0 n (%)
same,"Asthenia, All Grades","1B 150 mg, N=8",1 (12.5) n (%)
same,"Asthenia, Grade 3/4","1B 150 mg, N=8",0 n (%)
same,"Blood Bilirubin Increased, All Grades","1B 150 mg, N=8",1 (12.5) n (%)
same,"Blood Bilirubin Increased, Grade 3/4","1B 150 mg, N=8",0 n (%)
same,"Blood Creatine Phosphokinase Increased, All Grades","1B 150 mg, N=8",0 n (%)
same,"Blood Creatine Phosphokinase Increased, Grade 3/4","1B 150 mg, N=8",0 n (%)
same,"Blood Creatinine Increased, All Grades","1B 150 mg, N=8",1 (12.5) n (%)
same,"Blood Creatinine Increased, Grade 3/4","1B 150 mg, N=8",0 n (%)
same,"Decreased Appetite, All Grades","1B 150 mg, N=8",3 (37.5) n (%)
